Activity calls are given as the source filed them. No cut-off for these calls is given here.
How the values were obtained:
Format in all cases: cell-based
HepG2 [1] = experiment: Cytotoxicity against human HepG2 cells assessed as cell viability at 10 uM after 24 hrs by MTS assay; conditions: hepg2, 24 h
[2] = Inhibition of NF-kappaB activation expressed in TNFalpha-stimulated human HepG2 cells co-transfected with […] plasmid pretreated for 1 hr before TNFalpha challenge measured after 24 hrs by luciferase reporter gene assay
HepG2 [3] = experiment: Inhibition of NFkappaB activation expressed in human HepG2 cells assessed as reduction in TNF-alpha-induced iNOS mRNA expression preincubated 1 hr before TNFalpha challenge measured after 6 hrs by RT-PCR analysis
HepG2 [4] = experiment: Inhibition of NF-kappaB activation expressed in human HepG2 cells assessed as reduction in TNFalpha-induced COX2 mRNA expression preincubated 1 hr before TNFalpha challenge measured after 6 hrs by RT-PCR analysis
[5] = target: T1, Peroxisome proliferator-activated receptor alpha (Homo sapiens) (UniProt Q07869); experiment: Transactivation of Gal4-fused PPARalpha ligand binding domain expressed in human HepG2 cells co-transfected with pFR-Luc and pRL-CMV at 0.1 to 10 uM after 20 hrs by dual-luciferase reporter gene assay
T1 sequence (whole entry): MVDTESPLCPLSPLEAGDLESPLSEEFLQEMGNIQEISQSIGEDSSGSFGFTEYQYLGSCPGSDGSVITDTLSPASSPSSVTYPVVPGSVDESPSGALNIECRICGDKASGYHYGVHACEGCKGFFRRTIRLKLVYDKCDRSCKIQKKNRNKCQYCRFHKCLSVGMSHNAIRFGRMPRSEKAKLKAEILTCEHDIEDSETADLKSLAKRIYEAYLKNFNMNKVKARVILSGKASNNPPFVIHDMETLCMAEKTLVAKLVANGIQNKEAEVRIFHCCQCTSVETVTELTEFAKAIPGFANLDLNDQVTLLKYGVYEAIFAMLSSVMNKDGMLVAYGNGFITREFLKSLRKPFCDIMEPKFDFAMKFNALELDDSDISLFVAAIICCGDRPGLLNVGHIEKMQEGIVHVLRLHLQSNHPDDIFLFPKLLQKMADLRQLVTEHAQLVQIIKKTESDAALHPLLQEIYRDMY

[6] = target: T2, Peroxisome proliferator-activated receptor delta (Homo sapiens) (UniProt Q03181); experiment: Transactivation of Gal4-fused PPARbeta/delta ligand binding domain expressed in human HepG2 cells co-transfected with pFRLuc and pRL-CMV at 0.1 to 10 uM after 20 hrs by dual-luciferase reporter gene assay
T2 sequence (whole entry): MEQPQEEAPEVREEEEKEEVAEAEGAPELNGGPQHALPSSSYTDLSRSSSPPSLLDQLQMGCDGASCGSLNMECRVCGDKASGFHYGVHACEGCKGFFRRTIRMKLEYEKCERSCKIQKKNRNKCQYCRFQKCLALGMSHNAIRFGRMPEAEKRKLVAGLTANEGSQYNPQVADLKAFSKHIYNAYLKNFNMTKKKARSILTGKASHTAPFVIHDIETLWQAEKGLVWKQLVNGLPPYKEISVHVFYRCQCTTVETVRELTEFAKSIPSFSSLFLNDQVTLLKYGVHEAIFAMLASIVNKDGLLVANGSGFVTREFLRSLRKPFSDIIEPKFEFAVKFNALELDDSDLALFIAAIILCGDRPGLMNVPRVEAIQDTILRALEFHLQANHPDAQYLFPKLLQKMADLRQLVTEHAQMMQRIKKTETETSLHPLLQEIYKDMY

[7] = target: T3, Peroxisome proliferator-activated receptor gamma (Homo sapiens) (UniProt P37231); experiment: Transactivation of Gal4-fused PPARgamma ligand binding domain expressed in human HepG2 cells co-transfected with pFR-Luc and pRL-CMV at 0.1 to 10 uM after 20 hrs by dual-luciferase reporter gene assay
T3 sequence (whole entry): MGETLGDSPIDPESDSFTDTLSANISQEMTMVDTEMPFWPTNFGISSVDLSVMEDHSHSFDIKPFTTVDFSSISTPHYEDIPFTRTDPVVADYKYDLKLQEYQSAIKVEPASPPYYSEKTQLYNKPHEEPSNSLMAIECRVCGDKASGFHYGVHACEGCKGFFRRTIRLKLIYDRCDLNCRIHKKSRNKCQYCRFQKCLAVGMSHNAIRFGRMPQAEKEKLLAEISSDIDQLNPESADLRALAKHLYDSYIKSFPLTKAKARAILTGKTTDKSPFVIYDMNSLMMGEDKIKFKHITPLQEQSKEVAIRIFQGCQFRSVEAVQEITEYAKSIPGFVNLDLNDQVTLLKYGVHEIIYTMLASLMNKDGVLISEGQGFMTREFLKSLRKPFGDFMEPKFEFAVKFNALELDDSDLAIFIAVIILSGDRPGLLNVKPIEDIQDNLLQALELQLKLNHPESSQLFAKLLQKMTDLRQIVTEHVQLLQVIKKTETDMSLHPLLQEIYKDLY

IC50 [2] [µM] | Activity [5] | Activity [6] | Activity [7] | SMILES | Activity (HepG2 [1]) | inhibition (HepG2 [3]) | inhibition (HepG2 [4])
9.5 | inactive | inactive | Active | CC1(C)CC[C@]2(C(=O)O[C@@H]3O[C@H](CO)[C@@H](O)[C@H](O)[C@H]3O)CC[C@]3(C)C(=CC[C@@H]4[C@@]5(C)CC[C@H](O[C@@H]6O[C@H](C(=O)O)[C@@H](O)[C@H](O[C@@H]7O[C@H](CO)[C@@H](O)[C@H](O)[C@H]7O)[C@H]6O[C@@H]6OC[C@H](O)[C@H](O)[C@H]6O)C(C)(C)[C@@H]5CC[C@]43C)[C@@H]2C1 | Non-toxic | Dose-dependent effect | Dose-dependent effect
– | inactive | inactive | Active | CC1(C)CC[C@]2(C(=O)O[C@@H]3O[C@H](CO)[C@@H](O)[C@H](O)[C@H]3O)CC[C@]3(C)C(=CC[C@@H]4[C@@]5(C)CC[C@H](O[C@@H]6O[C@H](C(=O)O)[C@@H](O)[C@H](O[C@@H]7O[C@H](CO)[C@H](O)[C@H](O)[C@H]7O)[C@H]6O[C@@H]6O[C@H](CO)[C@H](O)[C@H](O)[C@H]6O)C(C)(C)[C@@H]5CC[C@]43C)[C@@H]2C1 [ELATOSIDE D] | Non-toxic | – | –
4.1 | – | – | – | CC1(C)CC[C@]2(C(=O)O[C@@H]3O[C@H](CO[C@@H]4O[C@H](CO)[C@@H](O)[C@H](O)[C@H]4O)[C@@H](O)[C@H](O)[C@H]3O)CC[C@]3(C)C(=CC[C@@H]4[C@@]5(C)CC[C@H](O[C@@H]6O[C@H](C(=O)O)[C@@H](O[C@@H]7O[C@@H](CO)[C@H](O)[C@H]7O)[C@H](O)[C@H]6O[C@@H]6O[C@H](CO[C@@H]7O[C@H](CO)[C@@H](O)[C@H](O)[C@H]7O)[C@@H](O)[C@H](O)[C@H]6O)C(C)(C)[C@@H]5CC[C@]43C)[C@@H]2C1 [ELATOSIDE L] | Non-toxic | Dose-dependent effect | Dose-dependent effect

The next lines start with the molecule.

SMILES | IC50 [2] [µM] | Activity [5] | Activity [6] | Activity [7] | Activity (HepG2 [1]) | inhibition (HepG2 [3]) | inhibition (HepG2 [4])
COC(=O)[C@H]1O[C@@H](O[C@H]2CC[C@]3(C)[C@H]4CC=C5[C@@H]6CC(C)(C)CC[C@]6(C(=O)O[C@@H]6O[C@H](CO)[C@@H](O)[C@H](O)[C@H]6O)CC[C@@]5(C)[C@]4(C)CC[C@H]3C2(C)C)[C@H](O[C@@H]2OC[C@H](O)[C@H](O)[C@H]2O)[C@@H](O[C@@H]2O[C@H](CO)[C@@H](O)[C@H](O)[C@H]2O)[C@@H]1O | – | inactive | inactive | Active | Non-toxic | – | –
CC1(C)CC[C@]2(C(=O)O[C@@H]3O[C@H](CO)[C@@H](O)[C@H](O)[C@H]3O)CC[C@]3(C)C(=CC[C@@H]4[C@@]5(C)CC[C@H](O[C@@H]6O[C@H](C(=O)O)[C@@H](O[C@H]7O[C@@H](CO)[C@H](O)[C@H]7O)[C@H](O[C@@H]7O[C@H](CO)[C@@H](O)[C@H](O)[C@H]7O)[C@H]6O)C(C)(C)[C@@H]5CC[C@]43C)[C@@H]2C1 [STIPULEANOSIDE R2] | – | – | – | – | Non-toxic | – | –
O=C(O)c1cc(/N=N/c2ccc(S(=O)(=O)Nc3ccccn3)cc2)ccc1O [SULFASALAZINE] | 0.9 | – | – | – | – | – | –
CC1(C)CC[C@]2(C(=O)O[C@@H]3O[C@H](CO)[C@@H](O)[C@H](O)[C@H]3O)CC[C@]3(C)C(=CC[C@@H]4[C@@]5(C)CC[C@H](O[C@@H]6O[C@H](C(=O)O)[C@@H](O[C@@H]7O[C@@H](CO)[C@H](O)[C@H]7O)[C@H](O)[C@H]6O[C@@H]6O[C@H](CO)[C@@H](O)[C@H](O)[C@H]6O)C(C)(C)[C@@H]5CC[C@]43C)[C@@H]2C1 [TARASAPONIN IV] | – | – | – | – | Non-toxic | – | –
